# Data as given in patent publication US8378172B2, “Methods using acyl-CoA binding proteins to enhance low-temperature tolerance in genetically modified plants” (The University of Hong Kong, priority 2009, dated 2013).
# Legend:
# [1] = target: T1, (His)6-ACBP6 (Arabidopsis thaliana, UniProt P57752); assay: in vitro filter-binding assay, (His)6-ACBP6/lipid binding on nitrocellulose; conditions: 1 μg/ml (His)6-ACBP6
# T1 construct: made in house; host or cells: Escherichia coli
# Method: A, Purification of (His)6-ACBP6 recombinant protein. […] M, marker; lane 1, flow through fraction; lane 2, washing fraction at pH 6.3; lanes 3-8, eluted fractions at pH 5.9; lanes 9-12, eluted fractions at pH 4.5. B, (His)6-ACBP6/lipid binding on filters. Various concentrations (0, 12.5, 25.0 and 32.5 μM) of lipids (PA, PC and LysoPC) were spotted onto nitrocellulose and incubated with 1 μg/ml of purified (His)6-ACBP6 protein. The (His)6-ACBP6/lipid binding was detected by immunoblotting with HRP-conjugated anti-penta-His antibodies. C, Effect of PC acyl species on (His)6-ACBP6/lipid binding. Fifty μM lipid (PC, 16:0-PC, 18:0-PC, 18:1-PC, 18:2-PC or DMPC) spotted onto nitrocellulose was incubated with 1 μg/ml of purified (His)6-ACBP6 protein. The (His)6-ACBP6/lipid binding was detected by immunoblotting with HRP-conjugated anti-penta-His antibodies. […]
# Expression and purification of His-tagged ACBP6 recombinant protein was carried out according to Xiao et al. (Plant J 54: 141-151, 2008). […] Following incubated with the HRP-conjugated anti-penta-His antibodies (1:2,000; QIAGEN, Cat. No. 1014922) for 1 h at RT, the filter was again washed 3 times with TTBS, each for 10 min and then detected with the ECL Western Blotting Detection Kit (Amersham) following the manufacturer's protocols.
# T1 sequence (P57752 other isoform, or with tags, fused parts or gaps): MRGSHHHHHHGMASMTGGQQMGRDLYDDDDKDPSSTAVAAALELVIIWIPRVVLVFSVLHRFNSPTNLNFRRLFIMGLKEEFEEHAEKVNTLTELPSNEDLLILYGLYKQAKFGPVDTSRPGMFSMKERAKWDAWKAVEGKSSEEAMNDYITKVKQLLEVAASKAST
# [2] = target: T2, (His)6-ACBP4 (Arabidopsis thaliana, UniProt Q9MA55); conditions: recombinant (His)6-ACBP4; read-out: dissociation constant (Kd) in binding oleoyl-CoA esters; cited from earlier work
# T2 construct: (His)6
# T2 sequence (Q9MA55 1-668): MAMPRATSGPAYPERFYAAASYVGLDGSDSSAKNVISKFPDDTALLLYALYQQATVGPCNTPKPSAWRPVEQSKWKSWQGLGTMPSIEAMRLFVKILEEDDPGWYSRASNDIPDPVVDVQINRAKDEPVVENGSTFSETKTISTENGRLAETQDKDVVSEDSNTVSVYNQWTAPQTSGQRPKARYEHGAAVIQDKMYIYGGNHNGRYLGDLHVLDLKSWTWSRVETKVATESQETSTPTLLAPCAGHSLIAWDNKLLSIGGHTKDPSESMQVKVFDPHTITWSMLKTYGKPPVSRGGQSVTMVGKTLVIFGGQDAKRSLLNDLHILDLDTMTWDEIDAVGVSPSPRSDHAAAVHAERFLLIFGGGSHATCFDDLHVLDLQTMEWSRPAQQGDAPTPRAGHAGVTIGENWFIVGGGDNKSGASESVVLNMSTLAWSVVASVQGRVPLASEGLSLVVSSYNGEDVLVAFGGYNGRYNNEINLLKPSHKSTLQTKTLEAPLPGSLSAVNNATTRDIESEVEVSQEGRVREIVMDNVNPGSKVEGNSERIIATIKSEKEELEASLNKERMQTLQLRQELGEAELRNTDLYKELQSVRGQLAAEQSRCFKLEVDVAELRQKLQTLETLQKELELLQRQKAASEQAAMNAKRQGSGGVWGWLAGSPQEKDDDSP
# [3] = target: T3, (His)6-ACBP5 (Arabidopsis thaliana, UniProt Q8RWD9); conditions: recombinant (His)6-ACBP5; read-out: dissociation constant (Kd) in binding oleoyl-CoA esters; cited from earlier work
# T3 construct: (His)6
# T3 sequence (Q8RWD9 1-648): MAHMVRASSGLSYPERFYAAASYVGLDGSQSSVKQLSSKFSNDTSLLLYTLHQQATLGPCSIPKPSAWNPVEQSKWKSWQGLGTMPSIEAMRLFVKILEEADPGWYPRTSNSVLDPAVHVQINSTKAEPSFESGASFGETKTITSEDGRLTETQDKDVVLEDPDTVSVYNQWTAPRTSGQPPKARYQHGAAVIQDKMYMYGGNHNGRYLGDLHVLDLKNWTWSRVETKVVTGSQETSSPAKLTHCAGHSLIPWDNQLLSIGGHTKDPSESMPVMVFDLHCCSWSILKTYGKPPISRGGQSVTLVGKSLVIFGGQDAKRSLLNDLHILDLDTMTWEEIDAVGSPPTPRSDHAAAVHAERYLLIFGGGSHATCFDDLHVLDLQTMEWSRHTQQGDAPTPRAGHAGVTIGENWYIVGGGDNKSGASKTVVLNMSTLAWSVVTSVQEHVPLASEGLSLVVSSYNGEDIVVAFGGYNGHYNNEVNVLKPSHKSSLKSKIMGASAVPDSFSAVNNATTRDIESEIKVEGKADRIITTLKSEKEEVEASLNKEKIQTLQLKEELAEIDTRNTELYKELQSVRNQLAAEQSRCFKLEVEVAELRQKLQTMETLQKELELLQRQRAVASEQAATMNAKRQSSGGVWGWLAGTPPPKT
# [4] = target: T4, (His)6-ACBP6 (Arabidopsis thaliana, UniProt P57752); conditions: recombinant (His)6-ACBP6; read-out: dissociation constant (Kd) in binding oleoyl-CoA esters; cited from earlier work
# T4 construct: (His)6
# T4 sequence (P57752 1-92): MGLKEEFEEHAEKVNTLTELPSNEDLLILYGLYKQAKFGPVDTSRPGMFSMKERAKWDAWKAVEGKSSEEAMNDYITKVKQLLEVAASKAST
compound,measurement,setting,value
"1,2-diacyl-sn-glocero-3-phosphocholine [PC]",(His)6-ACBP6/lipid binding on filters,"[1]; 0, 12.5, 25.0 and 32.5 μM lipid spotted, FIG. 7B",binds
"CCCCCCCCCCCCCC(=O)OC[C@H](COP(=O)([O-])OCC[N+](C)(C)C)OC(=O)CCCCCCCCCCCCC [DMPC, 1,2-dimyristoyl-sn-glycero-3-phosphocholine]",effect of PC acyl species on (His)6-ACBP6/lipid binding,"[1]; 50 μM lipid spotted, FIG. 7C",did not bind
CCCCCCCC/C=C\CCCCCCCC(=O)SCCNC(=O)CCNC(=O)[C@H](O)C(C)(C)COP(=O)(O)OP(=O)(O)OC[C@H]1O[C@@H](n2cnc3c(N)ncnc32)[C@H](O)[C@@H]1OP(=O)(O)O [oleoyl-CoA],Kd,[2],560 nM
same,Kd,[3],680 nM
same,Kd,[4],3700 nM
